This note sets out measurements from PMC11258615 (RSC Advances, 2024).

This test deals with mushroom tyrosinase (Agaricus bisporus, UniProt C7FF04). The test can be described thus: Kinetic analysis of tyrosinase inhibition. As to conditions: L-DOPA 0.5 to 3 mM.

Entries after “also recorded” stand apart in the source; their conditions may differ.

mushroom tyrosinase, sequence (C7FF04 1-392): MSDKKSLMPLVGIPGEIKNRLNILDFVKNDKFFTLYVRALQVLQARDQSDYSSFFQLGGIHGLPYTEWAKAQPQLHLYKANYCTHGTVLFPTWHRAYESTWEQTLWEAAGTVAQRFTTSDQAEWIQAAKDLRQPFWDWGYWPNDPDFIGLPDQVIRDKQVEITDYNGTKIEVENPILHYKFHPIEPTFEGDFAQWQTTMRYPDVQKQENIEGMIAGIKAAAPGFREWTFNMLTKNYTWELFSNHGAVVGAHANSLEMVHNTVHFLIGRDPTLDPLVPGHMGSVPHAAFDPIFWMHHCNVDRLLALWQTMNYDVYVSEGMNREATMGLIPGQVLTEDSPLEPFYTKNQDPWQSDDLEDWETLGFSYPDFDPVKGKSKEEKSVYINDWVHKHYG

For the molecule `Nc1ccc(-c2cc(-c3ccc(-c4cc(-c5ccc(N)cc5)nc(N)n4)cc3)nc(N)n2)cc1` [Compound 6P, 6,6′-(1,4-phenylene)bis[4-(4-aminophenyl)pyrimidin-2-amine]], the “Type of tyrosinase inhibition (Lineweaver-Burk plots)” value was “mixed-type inhibitor; also recorded: mixed-type inhibition”.
